The values below come from patent publication US6858739B2, “Indole and benzimidazole 15-lipoxygenase inhibitors” (Warner-Lambert Company, priority 2000, dated 2005).

For one data set, the target named is T1, human 15-LO (Homo sapiens, UniProt P16050).
T1 sequence (P16050 1-662): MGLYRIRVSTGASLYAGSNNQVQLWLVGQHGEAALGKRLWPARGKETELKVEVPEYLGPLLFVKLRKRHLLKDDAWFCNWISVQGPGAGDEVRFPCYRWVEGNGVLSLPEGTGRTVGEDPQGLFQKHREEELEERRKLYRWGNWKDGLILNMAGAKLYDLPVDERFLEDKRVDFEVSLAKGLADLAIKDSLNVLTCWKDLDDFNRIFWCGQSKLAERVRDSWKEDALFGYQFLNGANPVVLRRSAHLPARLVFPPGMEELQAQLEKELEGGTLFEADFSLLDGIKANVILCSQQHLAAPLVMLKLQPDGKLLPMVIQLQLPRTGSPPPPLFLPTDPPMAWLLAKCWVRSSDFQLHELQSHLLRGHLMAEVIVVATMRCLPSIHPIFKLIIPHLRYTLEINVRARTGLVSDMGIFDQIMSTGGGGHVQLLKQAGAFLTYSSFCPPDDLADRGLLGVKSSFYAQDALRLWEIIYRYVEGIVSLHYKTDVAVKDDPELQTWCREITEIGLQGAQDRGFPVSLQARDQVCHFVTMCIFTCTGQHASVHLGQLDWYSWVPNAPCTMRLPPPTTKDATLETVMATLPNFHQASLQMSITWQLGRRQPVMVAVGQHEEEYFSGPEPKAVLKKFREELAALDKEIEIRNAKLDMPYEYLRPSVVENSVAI
Nature of the data set: 15-LO inhibition, human enzyme. The data set is classed as biochemical. The following applies: linoleic acid as substrate; for inhibition at 10 µM: at 10 micromolar. The protocol: The compounds described above are effective inhibitors of 15-LO when evaluated in standard assays routinely utilized to measure 15-LO activity. Specifically, representative compounds were evaluated by the methods described by Auerbach et al., Analytical Biochemistry, 1992;201:375-380. Two in vitro assays were utilized, one utilizing rabbit reticulocyte 15-LO, the other using human 15-LO. Both used linoleic acid as substrate, to enzymatically produce a peroxide oxidation product known as 13(S)-HPODE. N-Benzoyl leucomethylene blue was utilized as a colorimetric reagent for detection and quantification of the peroxide formation. Also, HPLC was utilized to quantify the oxidation following incubation at 4° C. for 10 minutes.
Data Column 1 gives the concentration of compound required to inhibit 50% of the activity of 15-LO (IC50) when measured by the HPLC method of Auerbach et al. using rabbit enzymes, and data Column 2 gives data from human 15-LO enzyme.

Where a name gives a salt, the structure may show the parent alone.

Take `COc1ccc(-c2cc3cc(F)c(F)cc3[nH]2)cc1NS(=O)(=O)c1cccc(N)c1` [Example 16, 3-Amino-N-[5-(5,6-difluoro-1H-indol-2-yl)-2-methoxy-phenyl]-benzenesulfonamide]: the melting point is 235 to 238 °C. The IC50 against human 15-LO was found to be 20 nM.

Consider `COc1ccc(-c2cc3ccccc3[nH]2)cc1NC(=S)Nc1ccc(C(=O)O)cc1` [Example 32, 4-{3-[5-(1H-Indol-2-yl)-2-methoxy-phenyl]-thioureido}-benzoic acid], for which the melting point lay in the range of 201 to 203 °C. In addition, the IC50 on human 15-LO amounted to 304 nM.

In turn, `COc1ccc(-c2cc3cc(F)c(F)cc3[nH]2)cc1NCc1ccc([N+](=O)[O-])c(O)c1` [Example 48, [5-(5,6-Difluoro-1H-indol-2-yl)-2-methoxy-phenyl]-(3-hydroxy-4-nitro-benzyl)-amine] came in with a melting point of 170 to 171 °C. On human 15-LO, this compound displayed an inhibition at 10 µM of 98%.

In turn, `COc1ccc(-c2cc3ccccc3[nH]2)cc1NC(=S)Nc1cccc(CC(=O)O)c1` [Example 33, (3-{3-[5-(1H-Indol-2-yl)-2-methoxy-phenyl]-thioureido}-phenyl)-acetic acid] displayed a melting point of 174 to 175 °C. Moreover, half-maximal inhibition at human 15-LO (IC50) required 740 nM.

The compound `COc1ccc(-c2cc3cc(F)c(F)cc3[nH]2)cc1NC(=S)N[C@@H](CO)[C@@H](O)c1ccccc1` [Example 40, 1-[5-(5,6-Difluoro-1H-indol-2-yl)-2-methoxy-phenyl]-3-((1S,2S)-2-hydroxy-1-hydroxymethyl-2-phenyl-ethyl)-thiourea] had a concentration for half-maximal inhibition (IC50) at human 15-LO of 620 nM.

Turning to `COc1ccc(-c2cc3cc(F)c(F)cc3[nH]2)cc1Nc1cccc(OCc2ccccc2)c1` (as salt: HCl) [Example 53, [5-(5,6-Difluoro-1H-indol-2-yl)-2-methoxy-phenyl]-(3-benzyloxy-phenyl)-amine], the melting point is 200 to 201 °C (dec.).

Take `COc1ccc(-c2cc3cc(F)c(F)cc3[nH]2)cc1NCc1ccc(O)c([N+](=O)[O-])c1` [Example 49, [5-(5,6-Difluoro-1H-indol-2-yl)-2-methoxy-phenyl](4-hydroxy-3-nitro-benzyl)-amine]: the melting point lay within 195 to 196 °C. For the same compound, the inhibition at 10 µM against human 15-LO worked out at 99%.

In turn, `COc1ccc(-c2cc3cc(F)c(F)cc3[nH]2)cc1NC(=O)Nc1cc(Cl)cc(Cl)c1` [Example 25, 1-(3,5-Dichloro-phenyl)-3-[5-(5,6-difluoro-1H-indol-2-yl)-2-methoxy-phenyl]-urea] came in with a melting point of 240 to 243 °C. On human 15-LO, this compound returned an IC50 of 2080 nM.

Compound `COc1ccc(-c2cc3ccccc3[nH]2)cc1NC(=S)N[C@H](C)c1ccccc1` [Example 27, (R)-1-[5-(1H-Indol-2-yl)-2-methoxy-phenyl]-3(1-phenyl-ethyl)-thiourea] registered a melting point of 179 to 181 °C. At human 15-LO, this compound came in with an IC50 of 1770 nM.

For the compound `COc1ccc(-c2cc3ccccc3[nH]2)cc1NC(=S)NCCNC(=O)OC(C)(C)C` [Example 31, (2-{3-[5-(1H-Indol-2-yl)-2-methoxy-phenyl]-thioureido}-ethyl)-carbamic acid tert-butyl ester], the melting point fell in the range of 159 to 160 °C. On human 15-LO, this compound returned an IC50 of 141 nM.

As for `COc1ccc(-c2cc3cc(F)c(F)cc3[nH]2)cc1NCc1cccc(C#N)c1` [Example 51, [5-(5,6-Difluoro-1H-indol-2yl)-2-methoxy-phenyl]-(3-cyano-benzyl)-amine], the melting point lay in the range of 154 to 155 °C. The same compound registered an IC50 against human 15-LO of 432 nM.

For the compound `COc1ccc(-c2cc3cc(F)c(F)cc3[nH]2)cc1NCc1ccc([N+](=O)[O-])cc1` [Example 47, [5-(5,6-Difluoro-1H-indol-2-yl)-2-methoxy-phenyl]-(4nitro-benzyl)-amine], the melting point lay in the range of 181 to 182 °C. The same compound returned an IC50 against human 15-LO of 534 nM.

Compound `COc1ccc(-c2cc3cc(Cl)c(Cl)cc3[nH]2)cc1Nc1cccc(C(F)(F)F)c1` [Example 54, [5-(5,6-Dichloro-1H-indol-2-yl)-2-methoxy-phenyl]-(3-trifluoro-methylphenyl)-amine] returned a melting point of 193 to 194 °C. In addition, the IC50 against human 15-LO came to 127 nM.

In turn, `COc1ccc(-c2cc3ccccc3[nH]2)cc1NCc1cccc([N+](=O)[O-])c1` [Example 42, [5-(1H-indol-2-yl)-2-methoxy-phenyl]-(3-nitro-benzyl)-amine] returned a melting point of 160 to 162 °C. Also, the IC50 at human 15-LO worked out at 870 nM.

On to `COc1ccc(-c2cc3ccccc3[nH]2)cc1NCc1ccc(O)c([N+](=O)[O-])c1` [Example 45, [5-(1H-Indol-2-yl)-2-methoxy-phenyl]-(4-hydroxy-3-nitro-benzyl)-amine], for which the melting point lay in the range of 165 to 166 °C. The same compound displayed an IC50 on human 15-LO of 420 nM.

Compound `COc1ccc(-c2cc3ccccc3[nH]2)cc1NCc1ccc([N+](=O)[O-])cc1` [Example 43, [5-(1H-Indol-2-yl)-2-methoxy-phenyl]-(4-nitro-benzyl)-amine] returned a melting point of 198 to 199 °C. The same compound returned a half-inhibitory concentration (IC50) against human 15-LO of 920 nM.

`COc1ccc(-c2cc3cc(F)c(F)cc3[nH]2)cc1NCc1cccc([N+](=O)[O-])c1` [Example 46, [5-(5,6-Difluoro-1H-indol-2-yl)-2-methoxy-phenyl]-(3-nitro-benzyl)-amine]: the melting point was in the range of 212 to 214 °C. The compound also came in with an IC50 on human 15-LO of 3030 nM.

`COc1ccc(-c2cc3ccccc3[nH]2)cc1NC(=S)Nc1ccc(CC(=O)O)cc1` [Example 34, (4-{3-[5-(1H-Indol-2-yl)-2-methoxy-phenyl]-thioureido}-phenyl)-acetic acid]: the melting point is 190 to 192 °C. Further, the IC50 against human 15-LO was 1440 nM.

In turn, `COc1ccc(-c2cc3cc(F)c(F)cc3[nH]2)cc1Nc1cccc(C(F)(F)F)c1` [Example 22, [5-(5,6-Difluoro-1H-indol-2-yl)-2-methoxy-phenyl]-(3-trifluoro-methylphenyl)-amine] came in with a melting point of 144 to 146 °C. On human 15-LO, this compound displayed an IC50 of 48 nM.

As to `COc1ccc(-c2cc3ccccc3[nH]2)cc1NC(=S)Nc1ccc(S(N)(=O)=O)cc1` [Example 17, 4-{3-[5-(1H-Indol-2-yl)-2-methoxy-phenyl]-thioureido}-benzenesulfonamide], on human 15-LO, the IC50 came out at 187 nM.

Turning to `COC(=O)c1ccc(Nc2cc(-c3cc4cc(F)c(F)cc4[nH]3)ccc2OC)cc1` [Example 52, 4-[5-(5,6-Difluoro-1H-indol-2-yl)-2-methoxy-phenylamino]-benzoic acid methyl ester], the melting point lay in the range of 166 to 170 °C. This compound gave an IC50 at human 15-LO of 31 nM.

`COc1ccc(-c2cc3ccccc3[nH]2)cc1NCc1ccc([N+](=O)[O-])c(O)c1` [Example 44, [5-(1H-Indol-2-yl)-2-methoxy-phenyl]-(3-hydroxy-4-nitro-benzyl)-amine] had a melting point of 134 to 135 °C. At human 15-LO, the IC50 worked out at 236 nM.

The compound `COc1ccc(-c2cc3cc(F)c(F)cc3[nH]2)cc1NC(=S)Nc1cc(C(=O)O)cc(C(=O)O)c1` [Example 30, 5-{3-[5-(5,6-Difluoro-1H-indol-2-yl)-2-methoxy-phenyl]-thioureido}-isophthalic acid] yielded a half-maximal inhibitory concentration (IC50) at human 15-LO of 1820 nM.

`COc1ccc(-c2cc3cc(F)c(F)cc3[nH]2)cc1NS(=O)(=O)c1cccc(C#N)c1` [Example 28, 3Cyano-N-[5-(5,6-difluoro-1H-indol-2-yl)-2-methoxy-phenyl]-benzenesulfonamide] yielded a melting point of 239 to 242 °C. For the same compound, at human 15-LO, half-maximal inhibition (IC50) was put at 802 nM.

As for `CNc1cc(-c2cc3ccccc3[nH]2)ccc1OC` [Example 29, [5-(1H-Indol-2-yl)-2-methoxy-phenyl]-methyl-amine], on human 15-LO, the IC50 was found to be 470 nM.

The compound `COc1ccc(-c2cc3cc(F)c(F)cc3[nH]2)cc1NC(=S)N[C@@H](C)c1ccccc1` [Example 35, 1-[5-(5,6-Difluoro-1H-indol-2-yl)-2-methoxy-phenyl]-3-((S)-1-phenyl-ethyl)-thiourea] returned a melting point of 102 to 106 °C. Besides, the half-inhibitory concentration (IC50) at human 15-LO was 538 nM.

Regarding `CCCCCCCCCCCCS(=O)(=O)Nc1cc(-c2cc3cc(F)c(F)cc3[nH]2)ccc1OC` [Example 20, Dodecane-1-sulfonic acid [5-(5,6-difluoro-1H-indol-2-yl)-methoxy-phenyl]-amide], the melting point lay in the range of 148 to 149 °C. The compound further came in with an IC50 on human 15-LO of 13 nM.

Compound `CCOP(=O)(Cc1ccc(NC(=S)Nc2cc(-c3cc4ccccc4[nH]3)ccc2OC)cc1)OCC` [Example 23, (4-{3-[5-(1H-Indol-2-yl)-2-methoxy-phenyl]-thioureido}-benzyl)-phosphonic acid diethyl ester] had an IC50 on human 15-LO of 331 nM.
